# Laboratory results as given in PubChem BioAssay AID200 (DTP/NCI, 2004).
# “And” between values parts separate entries of the source, which are not always exact repeats. Equal values may be shown once. Toxic doses and inconclusive results are not listed. Where a SMILES comes first, the peptide text is derived from it. [ ]: non-standard residue; d: D form. The star is where a group is joined. Cbz = O=C(OCc1ccccc1)*; Nva = CCC[CH](N)C(=O)O
# Test system: B6C3F1 mice, B16 melanoma ip, median survival T/C
# Assay: NCI In Vivo Anticancer Drug Screen. Data for tumor model B16 Melanoma (intraperitoneal) in B6C3F1 mice
# Conditions: endpoint: median survival time, higher = longer survival
# Procedure: The antitumor activity of compounds was measured in mice bearing transplantable tumors. Survival or tumor size were measured and the results are expressed as the measurement made in the treated group (T) divided by the measurement made in the vehicle treated control group (C). The tumor model used in this assay is B16 Melanoma (intraperitoneal) in B6C3F1 mice
# [1] = dose: 50.0 mg/kg/injection, schedule: Q01DX009 (ip), vehicle: saline + alcohol
# [2] = dose: 400.0 mg/kg/injection, schedule: Q01DX009 (ip), vehicle: saline + alcohol
# [3] = dose: 12.5 mg/kg/injection, schedule: Q01DX009 (ip), vehicle: saline
# [4] = dose: 25.0 mg/kg/injection, schedule: Q01DX009 (ip), vehicle: saline
# [5] = dose: 50.0 mg/kg/injection, schedule: Q01DX009 (ip), vehicle: saline
# [6] = dose: 3.12 mg/kg/injection, schedule: Q01DX009 (ip), vehicle: Klucel (hydroxypropylcellulose) (HPC)
# [7] = dose: 6.25 mg/kg/injection, schedule: Q01DX009 (ip), vehicle: Klucel (hydroxypropylcellulose) (HPC)
# [8] = dose: 12.5 mg/kg/injection, schedule: Q01DX009 (ip), vehicle: Klucel (hydroxypropylcellulose) (HPC)
# [9] = dose: 25.0 mg/kg/injection, schedule: Q01DX009 (ip), vehicle: Klucel (hydroxypropylcellulose) (HPC)
# [10] = dose: 6.25 mg/kg/injection, schedule: Q01DX009 (ip), vehicle: saline with Tween-80
# [11] = dose: 12.5 mg/kg/injection, schedule: Q01DX009 (ip), vehicle: saline with Tween-80
# [12] = dose: 50.0 mg/kg/injection, schedule: Q01DX009 (ip), vehicle: saline with Tween-80
# [13] = dose: 25.0 mg/kg/injection, schedule: Q01DX009 (ip), vehicle: saline with Tween-80
# [14] = dose: 100.0 mg/kg/injection, schedule: Q01DX009 (ip), vehicle: saline with Tween-80
# [15] = dose: 200.0 mg/kg/injection, schedule: Q01DX009 (ip), vehicle: saline with Tween-80
smiles,measurement,setting,value
COc1ccc2c(c1OC(C)=O)-c1cc(OC(C)=O)cc3c1C(C2)N(C(=O)CN(CCCl)CCCl)CC3 (stereo not drawn),T/C,"dose: 1.56 mg/kg/injection, schedule: Q04DX003 (ip), vehicle: DMSO",120 % of control
same,T/C,"dose: 3.13 mg/kg/injection, schedule: Q04DX003 (ip), vehicle: DMSO",120 % of control
same,T/C,"dose: 6.25 mg/kg/injection, schedule: Q04DX003 (ip), vehicle: DMSO",159 % of control
same,T/C,"dose: 12.5 mg/kg/injection, schedule: Q04DX003 (ip), vehicle: DMSO",150 % of control
same,T/C,"dose: 25.0 mg/kg/injection, schedule: Q04DX003 (ip), vehicle: DMSO",150 % of control
same,T/C,"dose: 50.0 mg/kg/injection, schedule: Q04DX003 (ip), vehicle: DMSO",170 % of control
N[C@@H](Cc1ccc(O)c(O)c1)C(=O)O,T/C,"dose: 50.0 mg/kg/injection, schedule: Q01DX009 (ip), vehicle: suspension in saline",94 % of control
same,T/C,"dose: 100.0 mg/kg/injection, schedule: Q01DX009 (ip), vehicle: suspension in saline",110 % of control
same,T/C,"dose: 200.0 mg/kg/injection, schedule: Q01DX009 (ip), vehicle: suspension in saline",100 % of control
same,T/C,"dose: 400.0 mg/kg/injection, schedule: Q01DX009 (ip), vehicle: suspension in saline",101 % of control and 104 % of control
same,T/C,"dose: 800.0 mg/kg/injection, schedule: Q01DX009 (ip), vehicle: suspension in saline",93 % of control and 105 % of control
same,T/C,"dose: 1200.0 mg/kg/injection, schedule: Q01DX009 (ip), vehicle: suspension in saline",97 % of control
same,T/C,"dose: 1600.0 mg/kg/injection, schedule: Q01DX009 (ip), vehicle: suspension in saline",100 % of control
N[C@@H](C[C@H]1CCC(=O)[C@@H]2O[C@H]12)C(=O)O,T/C,"dose: 25.0 mg/kg/injection, schedule: Q01DX009 (ip), vehicle: saline + alcohol",99 % of control
same,T/C,[1],110 % of control
same,T/C,[2],155 % of control
CC(=O)/C=C\c1ccc(Cl)cc1,T/C,[3],107 % of control
same,T/C,[4],103 % of control
same,T/C,[5],103 % of control
CCCCOc1ccc(C(=O)SCCCN=C(N)N)cc1,T/C,"dose: 3.12 mg/kg/injection, schedule: Q01DX009 (ip), vehicle: suspension in saline",92 % of control
same,T/C,"dose: 6.25 mg/kg/injection, schedule: Q01DX009 (ip), vehicle: suspension in saline",97 % of control
same,T/C,"dose: 25.0 mg/kg/injection, schedule: Q01DX009 (ip), vehicle: suspension in saline",87 % of control
Cn1c(N)c(C(=O)/C=C/c2ccccc2)c(=O)n(C)c1=O,T/C,"dose: 1.56 mg/kg/injection, schedule: Q01DX009 (ip), vehicle: Klucel (hydroxypropylcellulose) (HPC)",101 % of control
same,T/C,[6],107 % of control
same,T/C,[7],106 % of control
same,T/C,[8],104 % of control
same,T/C,[9],105 % of control
same,T/C,"dose: 50.0 mg/kg/injection, schedule: Q01DX009 (ip), vehicle: Klucel (hydroxypropylcellulose) (HPC)",116 % of control
NC(N)=NC(N)=Nc1ccc(-c2ccc(N=C(N)N=C(N)N)cc2)cc1,T/C,"dose: 0.78 mg/kg/injection, schedule: Q01DX009 (ip), vehicle: saline with Tween-80",98 % of control
same,T/C,"dose: 1.56 mg/kg/injection, schedule: Q01DX009 (ip), vehicle: saline with Tween-80",107 % of control
same,T/C,"dose: 3.13 mg/kg/injection, schedule: Q01DX009 (ip), vehicle: saline with Tween-80",90 % of control
same,T/C,[10],106 % of control
same,T/C,[11],93 % of control
OC1CSC1,T/C,[1],109 % of control
same,T/C,"dose: 100.0 mg/kg/injection, schedule: Q01DX009 (ip), vehicle: saline + alcohol",107 % of control
same,T/C,"dose: 200.0 mg/kg/injection, schedule: Q01DX009 (ip), vehicle: saline + alcohol",113 % of control
same,T/C,[2],112 % of control
Clc1ccc2c(Cl)ncnc2c1,T/C,[3],96 % of control
same,T/C,[4],100 % of control
same,T/C,[12],93 % of control
same,T/C,[5],100 % of control
Cc1ccc2c(c1)C1(C)OC(C=CC1=O)O2 (stereo not drawn),T/C,[6],104 % of control
same,T/C,[7],115 % of control
same,T/C,[8],104 % of control
same,T/C,[9],112 % of control and 105 % of control
CCCC(NC(=O)OCc1ccccc1)C(=O)NC(CO)C(=O)O (stereo not drawn) (Cbz-[Nva]-Ser-OH; configuration not given here),T/C,"dose: 100.0 mg/kg/injection, schedule: Q01DX009 (ip), vehicle: Klucel (hydroxypropylcellulose) (HPC)",102 % of control
same,T/C,"dose: 200.0 mg/kg/injection, schedule: Q01DX009 (ip), vehicle: Klucel (hydroxypropylcellulose) (HPC)",100 % of control
same,T/C,"dose: 400.0 mg/kg/injection, schedule: Q01DX009 (ip), vehicle: Klucel (hydroxypropylcellulose) (HPC)",103 % of control
COC1C(CO)OC(n2c3c(Cl)cccc3c3c4c(c5c6cccc(Cl)c6[nH]c5c32)C(=O)NC4=O)C(O)C1O (stereo not drawn),T/C,"dose: 25.0 mg/kg/injection, schedule: Q01DX009 (ip), vehicle: distilled water + Tween-80",150 % of control
same,T/C,"dose: 100.0 mg/kg/injection, schedule: Q01DX009 (ip), vehicle: distilled water + Tween-80",172 % of control and 173 % of control
same,T/C,"dose: 200.0 mg/kg/injection, schedule: Q01DX009 (ip), vehicle: distilled water + Tween-80",161 % of control
C=C1C(O)C2(O)OCC34C(CC5C(C)=CC(=O)C(O)C5(C)C23)OC(=O)C(OC(=O)C(C)(O)CC)C14 (stereo not drawn),T/C,"dose: 0.13 mg/kg/injection, schedule: Q01DX009 (ip), vehicle: saline + alcohol",89 % of control
same,T/C,"dose: 0.25 mg/kg/injection, schedule: Q01DX009 (ip), vehicle: saline + alcohol",110 % of control and 101 % of control
same,T/C,"dose: 0.5 mg/kg/injection, schedule: Q01DX009 (ip), vehicle: saline + alcohol",103 % of control
same,T/C,"dose: 1.0 mg/kg/injection, schedule: Q01DX009 (ip), vehicle: saline + alcohol",115 % of control
O=NN(CCF)C(=O)N[C@H]1CCCC[C@H]1O,T/C,"dose: 7.5 mg/kg/injection, schedule: Q01DX001 (ip), vehicle: saline",109 % of control
same,T/C,"dose: 30.0 mg/kg/injection, schedule: Q01DX001 (ip), vehicle: saline",177 % of control
same,T/C,"dose: 60.0 mg/kg/injection, schedule: Q01DX001 (ip), vehicle: saline",209 % of control
Cn1ccc(=Nc2ccc(NC(=O)c3ccc(N=c4ccn(C)c5ccc([N+](=O)[O-])cc45)cc3[N+](=O)[O-])cc2)cc1,T/C,[11],105 % of control
same,T/C,[13],93 % of control
same,T/C,[12],91 % of control
same,T/C,[14],94 % of control
same,T/C,[15],96 % of control
same,T/C,"dose: 400.0 mg/kg/injection, schedule: Q01DX009 (ip), vehicle: saline with Tween-80",96 % of control
CC(=O)NC(C=O)OCC=O (stereo not drawn),T/C,"dose: 6.25 mg/kg/injection, schedule: Q01DX009 (ip), vehicle: water",112 % of control
same,T/C,"dose: 12.5 mg/kg/injection, schedule: Q01DX009 (ip), vehicle: water",111 % of control and 106 % of control
same,T/C,"dose: 25.0 mg/kg/injection, schedule: Q01DX009 (ip), vehicle: water",109 % of control and 105 % of control
same,T/C,"dose: 50.0 mg/kg/injection, schedule: Q01DX009 (ip), vehicle: water",103 % of control and 106 % of control
same,T/C,"dose: 100.0 mg/kg/injection, schedule: Q01DX009 (ip), vehicle: water",111 % of control and 117 % of control
same,T/C,"dose: 200.0 mg/kg/injection, schedule: Q01DX009 (ip), vehicle: water",112 % of control
COC1=C(OC)C(=O)C(SC/C=C(\C)CCCC(C)CCCC(C)CCCC(C)C)=CC1=O (stereo not drawn),T/C,[10],100 % of control
same,T/C,[11],109 % of control and 94 % of control
same,T/C,[13],101 % of control and 103 % of control
same,T/C,[12],121 % of control and 106 % of control
same,T/C,[14],117 % of control
same,T/C,[15],116 % of control
NC(CCCNc1cccc(O)c1)C(=O)O (stereo not drawn),T/C,"dose: 75.0 mg/kg/injection, schedule: Q01DX009 (ip), vehicle: saline",104 % of control
same,T/C,"dose: 100.0 mg/kg/injection, schedule: Q01DX009 (ip), vehicle: saline",87 % of control
CC(C)CC1C(=O)OC(C(C)C)C(=O)N(C)C(CC(C)C)C(=O)OC(C(C)C)C(=O)N(C)C(CC(C)C)C(=O)OC(C(C)C)C(=O)N(C)C(CC(C)C)C(=O)OC(C(C)C)C(=O)N1C (stereo not drawn),T/C,"dose: 1.0 mg/kg/injection, schedule: Q01DX009 (ip), vehicle: saline",97 % of control
same,T/C,"dose: 2.0 mg/kg/injection, schedule: Q01DX009 (ip), vehicle: saline",99 % of control
same,T/C,"dose: 4.0 mg/kg/injection, schedule: Q01DX009 (ip), vehicle: saline",104 % of control
same,T/C,"dose: 8.0 mg/kg/injection, schedule: Q01DX009 (ip), vehicle: saline",102 % of control
same,T/C,"dose: 16.0 mg/kg/injection, schedule: Q01DX009 (ip), vehicle: saline",101 % of control
